Common to all, as to format: functional, organism-based
In one experiment the test system is Leishmania mexicana. Briefly: Antileishmanial activity against Leishmania mexicana promastigotes by DNA fluorescence method.
A further experiment deals with Trypanosoma cruzi. Briefly: Antitrypanosomal activity against Trypanosoma cruzi Tulahuen C4 in vero cells assessed as intracellular growth inhibition of trypomastigote by beta-galactosidase reporter gene assay. (In a reporter assay the amount or activity of a reporter protein is the signal.)
A further experiment has as its system Plasmodium falciparum. The experiment is described as follows: Antimalarial activity against Plasmodium falciparum.

Where a SMILES comes first, the peptide text is derived from it. [ ]: non-standard residue; d: D form. The star is where a group is joined. Hmpa(2S,3S) = CC[C@H](C)[C@H](O)C(=O)O; NMeI = CC[C@H](C)[C@H](NC)C(=O)O; NMeV = CN[C@H](C(=O)O)C(C)C; X1 = C#CCCCC(CCCC(=O)*)OC

The source of these data is ChEMBL document CHEMBL1156651, “Viridamides A and B, lipodepsipeptides with antiprotozoal activity from the marine cyanobacterium Oscillatoria nigro-viridis” (J Nat Prod, 2008).

On to `C[C@@H]1[C@H](O)[C@@H](C)/C=C/C=C/C=C/C=C/C=C/C=C/C=C/[C@H](O[C@@H]2O[C@H](C)[C@@H](O)[C@H](N)[C@@H]2O)C[C@@H]2O[C@](O)(C[C@@H](O)C[C@@H](O)[C@H](O)CC[C@@H](O)C[C@@H](O)CC(=O)O[C@H]1C)C[C@H](O)[C@H]2C(=O)O` [AMPHOTERICIN B], for which 100 nM corresponded to half-maximal inhibition in the experiment on Leishmania mexicana (IC50).

As to `C#CCCCC(CCCC(=O)N(C)[C@H](C(=O)N[C@H](C(=O)N[C@H](C(=O)N(C)[C@H](C(=O)O[C@H](C(=O)N1CCC[C@H]1C(=O)OC)[C@@H](C)CC)C(C)C)C(C)C)C(C)C)[C@@H](C)CC)OC` (stereo partly drawn) [VIRIDAMIDE A] (X1-[NMeI]VV[NMeV][Hmpa(2S,3S)]P-OMe), the results for the IC50 in the experiment on Trypanosoma cruzi, in the experiment with Leishmania mexicana and in the experiment on Plasmodium falciparum were 1100 nM, 1500 nM and 5800 nM, respectively.

As to `CC1CS(=O)(=O)CCN1/N=C/c1ccc([N+](=O)[O-])o1` (stereo not given) [NIFURTIMOX], in the experiment with Trypanosoma cruzi, the IC50 amounted to 10000 nM.

Usually IC50 stands for the point on the concentration scale where inhibition reaches its midpoint.
